Measured values as given in publication PMC11820905, “Rational Design, Synthesis, and In Vitro Activity of Heterocyclic Gamma-Butyrobetaines as Potential Carnitine Acetyltransferase Inhibitors” (Molecules, 2025).

Experiments:
[1] = target: T1, Carnitine acetyltransferase isolated from pigeon breast muscle (Columba livia, UniProt P52826); experiment: CAT inhibition, IC50 determination (DTNB/Ellman reaction, absorbance at 405 nm); type: biochemical; settings: c(L-carnitine) = 50.56 μM; 5 min preincubation at 37 °C; eight inhibitor concentrations, triplicate over three days
T1 construct: CAT (isolated from pigeon breast muscle, ammonium sulfate suspension, CAS Number: 9029-90-7); purchased Sigma-Aldrich; host or cells: pigeon breast muscle (tissue-purified enzyme)
T1 sequence (P52826 31-627): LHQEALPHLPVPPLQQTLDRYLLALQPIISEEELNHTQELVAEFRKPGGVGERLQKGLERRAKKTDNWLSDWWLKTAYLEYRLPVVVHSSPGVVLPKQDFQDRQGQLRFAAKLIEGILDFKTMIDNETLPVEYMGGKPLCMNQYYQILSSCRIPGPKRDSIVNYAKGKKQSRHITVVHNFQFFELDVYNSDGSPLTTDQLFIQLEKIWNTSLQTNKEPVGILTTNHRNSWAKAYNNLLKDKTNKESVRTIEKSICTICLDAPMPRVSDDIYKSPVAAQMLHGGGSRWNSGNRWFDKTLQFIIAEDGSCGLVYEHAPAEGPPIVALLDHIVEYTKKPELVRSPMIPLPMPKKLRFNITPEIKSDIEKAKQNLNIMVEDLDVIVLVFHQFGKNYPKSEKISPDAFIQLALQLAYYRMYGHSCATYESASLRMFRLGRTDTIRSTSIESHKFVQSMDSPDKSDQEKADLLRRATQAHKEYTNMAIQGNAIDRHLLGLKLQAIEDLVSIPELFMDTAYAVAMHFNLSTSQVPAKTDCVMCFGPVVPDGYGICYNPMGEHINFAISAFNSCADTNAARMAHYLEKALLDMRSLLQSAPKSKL
From the text: To assess the impact of the synthesized compounds on CAT activity and establish the structure-activity relationship, we initially determined the concentration needed to reduce the enzyme activity by 50% (IC50) under the same reaction conditions. We slightly modified a method proposed by Marquis and Fritz, which allows for the quantification of the consumed L-carnitine by observing its conversion to acetyl L-carnitine using a reaction with 5,5′-dithiobis-(2-nitrobenzoic acid) (DTNB or Ellman’s reagent) and CoA to produce 2-nitro-5-thiobenzoic acid (TNB). We opted to determine the IC50 at a substrate concentration that yields a [S]/Km ratio of about 0.01 (c(L-carnitine) = 50.56 μM and Km = 3.0 mM) to ensure that the IC50 is virtually independent of [S]. We also used a kinetic approach, measuring the reaction rate over a time interval Δt, during which the dependence is linear (approximately 10–15% substrate conversion). The readings were taken within the first minute after the reaction began, and the degree of inhibition was determined as described in Section 3.3.1. The IC50 values for each compound were obtained by analyzing the percentage inhibition at eight different inhibitor concentrations, with each measurement conducted in triplicate over three consecutive days. The average values of the IC50 obtained are outlined in Figure 4.
(§1) Carnitine acetyltransferase isolated from pigeon breast muscle, ammonium sulfate suspension (CAS Number: 9029-90-7), with activity 71 U/mg protein (1U converts 1 μmol L-carnitine and 1 μmol AcCoA in Acetylcarnitine and free CoA in 1 min) was diluted with phosphate buffer (0.5 M, pH = 7.6) to obtain stock solution with concentration 24 U/mL. Ellman reagent was freshly prepared just before use by dissolving 25 mg DTNB in 5 mL 1 mM solution of Na2EDTA in phosphate buffer (0.5 M, pH = 7.6), the final concentration of DTNB in this solution being 12.8 mM. AcCoA, L-carnitine, and each of the tested compounds were dissolved in distilled water in order to obtain desired stock solutions with concentration c (AcCoA) = 348.0 μM and c (L-carnitine) = 303.4 μM (for IC50 determination). Tris-buffer solution was prepared by dissolving Tris. HCl in distilled water and pH was adjusted with NaOH to pH = 7.6, the final concentration of the solution being 1 M. The final volume of the reaction mixture was 300 μL, which included 50 μL of each stock solution of CAT, AcCoA, L-carnitine, DTNB, Tris-buffer, and test compound. In control probes, 50 μL distilled water was added instead of test compound. A mixture of CAT, AcCoA, DTNB, Tris-buffer, and test compounds were incubated for 5 min at 37 °C. The reaction was initiated by adding L-carnitine, and the reaction rate was monitored by measuring the absorbance at 405 nm.
Inhibition activity was assessed by calculating the reaction rate during the initial minute, within the linear range of A/t, utilizing the following formula:%Inh = 100 × ((ΔA/Δt)control − (ΔA/Δt) Inh)/((ΔA/Δt) control)
To obtain preliminary data for the IC50 values, we initially screened each compound at a final concentration of 5 mM. […] The half-maximal inhibitory concentration (IC50) was determined by plotting the response (A) against the concentration (c) of the inhibitor. All analyses were performed in triplicate over three consecutive days, and the corresponding IC50 values were averaged.

CAT = target: CAT; set-up: method as in PMID 19912061; settings: comparison value for the established drug; no kinetic study of it described here; no reference printed at the place (cf. ref 44); cited from earlier work
[2] = target: T1, Carnitine acetyltransferase isolated from pigeon breast muscle; experiment: CAT enzyme kinetics, mechanism of inhibition and Ki; type: biochemical
Method: Substrate concentrations were selected in the range of 0.2 to five times the Km value (Km = 0.3 mM) to facilitate effective inhibition detection at elevated levels while ensuring sufficient substrate availability for the reaction at increased inhibitor concentrations. […] The experiments enabled identification of the inhibition mechanism alongside calculations of Km, Vmax, and Ki. We utilized SigmaPlot version 12.5 (Systat Software Inc. San Jose, CA, USA), which incorporates modules for regression analysis and various inhibition models. The numerical results are summarized in Table 3, while the corresponding Lineweaver –Burk and Michaelis–Menten kinetic plots are available in the Supplementary Materials.
as §1, with “HCl in distilled water and pH was adjusted with NaOH to pH = 7.6, the final concentration of the solution being 1 M. The final volume of the reaction mixture was 300 μL, which included 50 μL of each stock solution of CAT, AcCoA, L-carnitine, DTNB, Tris-buffer, and test compound. In control probes, 50 μL distilled water was added instead of test compound. A mixture of CAT, AcCoA, DTNB, Tris-buffer, and test compounds were incubated for 5 min at 37 °C.” left out
The absorbance at 405 nm was measured every 6 s between the 30th second and the 3rd minute for all probes (in the linear range). The initial velocity (v0) was determined as the intercept of the velocity (v) versus time (t) graph. […]

| SMILES | IC50 [1] | further results |
| --- | --- | --- |
| Cn1cc[n+](CCCC(=O)[O-])c1 [Mim-GBB, 4-(1-methyl-1H-imidazol-3-ium-3-yl)butanoate] | 14 ± 0.9 mM | – |
| C[N+](C)(C)NCCC(=O)[O-] [Meldonium, reference compound] | 11.4 mM | Ki (CAT): 1.63 mM |
| CCOC(=O)CCC[N+](C)(C)CC [MeGBB-ester, 4-ethoxy-N-ethyl-N,N-dimethyl-4-oxobutan-1-aminium bromide, reference compound] | 21.6 ± 1.4 mM | – |
| C[N+]1(CCCC(=O)[O-])CCCC1 [Pyrr-GBB, 4-(1-methylpyrrolidin-1-ium-1-yl)butanoate] | 14.1 ± 1.91 mM | – |
| CCOC(=O)CCC[N+]1(C)CCCCC1 [Compound 2-ester, 1-(4-ethoxy-4-oxobutyl)-1-methylpiperidin-1-ium bromide] | 22.8 ± 1.8 mM | – |
| O=C([O-])CCC[n+]1ccc2ccccc2c1 [i-qui-GBB, 4-(isoquinolin-2-ium-2-yl)butanoate] | 2.24 ± 0.21 mM | Type of inhibition of CAT ([2]; best fit: highest R^2, lowest AIC): competitive inhibitor; Ki ([2]; competitive model, nonlinear regression (SigmaPlot), inhibitor 1.88 mM and 3.75 mM): 3.5 mM; Inhibition of CAT reaction rate versus blank samples ([2]; inhibitor concentration 0.94 mM): lack of inhibition |
| C[N+]1(CCCC(=O)[O-])CCCCC1 [Pip-GBB, 4-(1-methylpiperidin-1-ium-1-yl)butanoate] | 5.78 ± 1.2 mM | – |
| C[N+]1(CCCC(=O)[O-])CCOCC1 [Morph-GBB, 4-(4-methylmorpholino-4-ium)butanoate] | 23.7 ± 2.2 mM | – |
| CC[N+](C)(C)CCCC(=O)[O-] [MeGBB, 4-(ethyldimethylammonio)butanoate, reference compound] | 9.32 ± 0.47 mM | – |
| CN(C)c1cc[n+](CCCC(=O)[O-])cc1 [DMAP-GBB, 4-(4-(dimethylamino)pyridin-1-ium-1-yl)butanoate] | 10.4 ± 1.5 mM | – |
| CCOC(=O)CCC[N+]1(C)CCCC1 [Compound 1-ester, 1-(4-ethoxy-4-oxobutyl)-1-methylpyrrolidin-1-ium bromide] | 28.5 ± 0.6 mM | – |
| O=C([O-])CCC[n+]1ccccc1 [Pyr-GBB, 4-(pyridin-1-ium-1-yl)butanoate] | 43.6 ± 4.2 mM | – |
| CCOC(=O)CCC[N+]1(C)CCOCC1 [Compound 3-ester, 4-(4-ethoxy-4-oxobutyl)-4-methylmorpholin-4-ium bromide] | 29.9 ± 1.5 mM | – |
